# Literature values, collected in patent US20170266090A1, “ANTIMICROBIAL COMPOSITIONS THAT ARE DERMATOLOGICALLY NON-DRYING” (Marvel Technologies USA, LLC, priority 2016, published 2017).
# Conditions: background statement, no source given
smiles,measurement,value
CCO [Ethanol],Drying time,eight to thirteen
